Literature values as cited in patent publication US11253518B2, “Methods and compositions for the treatment of hair loss” (Aneira Pharma, Inc., priority 2019, dated 2022).
Converted amounts (≈) assume the structure as drawn. Where two headings read alike, the source gives them in different places. Each block holds one compound with its values, some of them ahead of it.

Key:
[1] = system: hair growth; conditions: for hair growth: McCarey 2004
[2] = molecular target: T1, human FP receptors (Homo sapiens, UniProt P43088)
[3] = molecular target: T1, human FP receptors; remark: listed apart in the source
[4] = system: elevated intraocular pressure; conditions: some human glaucoma patients; Gandolfi 2003
[5] = believed
[6] = system: elevated intraocular pressure; conditions: glaucomatous monkeys; Gagliuso 2004
[7] = not given; remark: listed apart in the source
[8] = system: production of dihydrotestosterone (DHT); conditions: oral; including prostate gland and scalp

T1 sequence (P43088 whole entry): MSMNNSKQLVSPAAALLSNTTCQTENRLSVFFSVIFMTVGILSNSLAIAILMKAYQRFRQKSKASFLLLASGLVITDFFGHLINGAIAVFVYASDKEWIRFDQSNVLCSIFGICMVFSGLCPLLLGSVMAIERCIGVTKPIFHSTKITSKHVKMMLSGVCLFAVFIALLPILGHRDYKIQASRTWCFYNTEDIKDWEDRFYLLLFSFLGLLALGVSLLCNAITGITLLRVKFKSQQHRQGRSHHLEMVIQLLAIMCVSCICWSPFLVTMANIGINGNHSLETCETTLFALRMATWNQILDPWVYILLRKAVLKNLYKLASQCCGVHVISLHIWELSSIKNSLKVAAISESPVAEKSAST

SMILES: CCCCCCCC(=O)CC[C@@H]1[C@@H](C/C=C\CCCC(=O)OC(C)C)[C@@H](O)C[C@H]1O [Uenoprostone isopropyl ester, Unoprostone isopropyl ester]
incidence of iris pigmentation and eyelash changes ([1]; 0.15%, two randomized clinical trials): Low incidence
hair growth [1]: no hair growth

potency relative to PGF2α [2]: twice the potency
EC50 ([2]; FP receptor agonist): 3.6 nM
potency as FP receptor ligand relative to latanoprost [3]: two-hundred times more potent
SMILES: O=C(O)CCC/C=C\C[C@@H]1[C@@H](CC[C@@H](O)CCc2ccccc2)[C@H](O)C[C@@H]1O [Latanoprost free acid]

amount converted into bimatoprost free acid [5]: under 5%
SMILES: CCNC(=O)CCC/C=C\C[C@@H]1[C@@H](/C=C/[C@@H](O)CCc2ccccc2)[C@H](O)C[C@@H]1O [bimatoprost, Bimatoprost]
reduction of elevated intraocular pressure in latanoprost non-responders [4]: responsive
effect on intraocular pressure together with latanoprost [6]: additive

stable for (acidic or basic aqueous solutions): no more than 48 hours
stable for (neutral aqueous solutions, room temperature): up to one month
solubility ([7]; 1:4 solution of ethanol:PBS (pH 7.2)): 400 µg/mL (≈ 925 µM)
solubility ([7]; PBS (pH 7.2)): approximately 50 μg/mL
solubility ([7]; propylene glycol, methanol, ethanol and 2-propanol): ≥ 5%
SMILES: CC(C)OC(=O)CCC/C=C\C[C@@H]1[C@@H](CC[C@@H](O)CCc2ccccc2)[C@H](O)C[C@@H]1O [latanoprost, isopropyl ester of 17-phenyl-13,14-dihydro prostaglandin F2a]

SMILES: CCCCCCCC(=O)CC[C@@H]1[C@@H](C/C=C\CCCC(=O)O)[C@@H](O)C[C@H]1O [uenoprostone free acid]
hair growth [1]: no hair growth

SMILES: CC(C)(C)NC(=O)[C@H]1CC[C@H]2[C@@H]3CC[C@H]4NC(=O)C=C[C@]4(C)[C@H]3CC[C@]12C [finasteride, (1S,3aS,3bS,5aR,9aR,9bS,11aS)-N-tert-butyl-9a,11a-dimethyl-7-oxo-1,2,3,3a,3b,4,5,5a,6,9b,10,11-dodecahydroindeno[5,4-f]quinoline-1-carboxamide]
decrease of production of dihydrotestosterone (DHT) [8]: about 70%
